Source: patent US20250171437A1 (Agios Pharmaceuticals,Inc., priority 2022, published 2025)

What follows are compounds tested against T1, human PAH with the R408W mutation (A375 R408W cells) (Homo sapiens, UniProt P00439, R408W) (assay: Cell Based Phenylalanine Flux Assay). Conditions: A375 R408W cells; 24 hrs with compound, then 20 μM sepiapterin and 800 μM 13C9,15N-Phenylalanine for 4 hours; 13C-Tyrosine by LC-MS; average where tested multiple times.
T1 construct: expressed in transfected cells
T1 sequence (P00439 1-452 R408W): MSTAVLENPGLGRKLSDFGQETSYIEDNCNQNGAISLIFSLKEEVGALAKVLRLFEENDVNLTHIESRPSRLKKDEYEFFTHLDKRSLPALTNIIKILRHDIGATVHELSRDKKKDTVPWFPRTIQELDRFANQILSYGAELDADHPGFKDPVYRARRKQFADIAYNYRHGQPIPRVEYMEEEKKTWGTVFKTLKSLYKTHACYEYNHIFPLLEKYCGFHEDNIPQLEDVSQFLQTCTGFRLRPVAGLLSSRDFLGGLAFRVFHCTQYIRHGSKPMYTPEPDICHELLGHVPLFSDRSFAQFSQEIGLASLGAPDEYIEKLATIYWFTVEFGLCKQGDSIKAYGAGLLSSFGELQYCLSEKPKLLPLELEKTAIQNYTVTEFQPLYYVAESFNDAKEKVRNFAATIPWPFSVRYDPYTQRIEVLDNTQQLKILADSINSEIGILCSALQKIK
In short: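 Phenylalanine-to-tyrosine flux is measured in A375 cells carrying stable human R408W PAH. After 24 h compound exposure, 13C9,15N-Phe (800 μM) with sepiapterin (20 μM) is supplied for 4 h and media 13C-Tyr is read by LC-MS; AC50s are binned.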
CC(C)(O)c1nc(C(F)(F)F)c(C(=O)N2CCc3[nH]cnc3[C@@H]2c2nc3ccc(F)cc3o2)o1 [Example 256, (R)-(4-(6-fluorobenzo[d]oxazol-2-yl)-6,7-dihydro-1H-imidazo[4,5-c]pyridin-5(4H)-yl)(2-(2-hydroxypropan-2-yl)-4-(trifluoromethyl)oxazol-5-yl)methanone] showed an AC50 of 1 to 5 µM.
With O=C(c1nnc(-c2cnn(C(F)F)c2)o1)N1CCc2[nH]cnc2[C@H]1c1nc2c(F)ccc(F)c2o1 [Example 801, (S)-(4-(4,7-difluorobenzo[d]oxazol-2-yl)-6,7-dihydro-1H-imidazo[4,5-c]pyridin-5(4H)-yl)(5-(1-(difluoromethyl)-1H-pyrazol-4-yl)-1,3,4-oxadiazol-2-yl)methanone] the AC50 was ≤ 0.5 µM.
For O=C(c1cnn2cc(N3CCOCC3)ccc12)N1CCc2[nH]cnc2[C@@H]1c1nc2c(F)cccc2o1 [Example 503, (R)-(4-(4-fluorobenzo[d]oxazol-2-yl)-6,7-dihydro-1H-imidazo[4,5-c]pyridin-5(4H)-yl)(6-morpholinopyrazolo[1,5-a]pyridin-3-yl)methanone], the AC50 was ≥ 5 µM.
In the case of O=C(c1oc(-c2ncccn2)nc1C(F)F)N1CCc2[nH]cnc2[C@@H]1c1nc2cccc(F)c2o1 [Example 668, (R)-(4-(difluoromethyl)-2-(pyrimidin-2-yl)oxazol-5-yl)(4-(7-fluorobenzo[d]oxazol-2-yl)-6,7-dihydro-1H-imidazo[4,5-c]pyridin-5(4H)-yl)methanone], the AC50 is reported as ≤ 0.5 µM.
CC(F)(F)c1ncoc1C(=O)N1CCc2[nH]cnc2[C@H]1c1nc2cccc(F)c2o1 [Example 620, (S)-(4-(1,1-difluoroethyl)oxazol-5-yl)(4-(7-fluorobenzo[d]oxazol-2-yl)-6,7-dihydro-1H-imidazo[4,5-c]pyridin-5(4H)-yl)methanone] was tested, and the AC50 was ≤ 0.5 µM.
O=C(c1ccnn1C(F)F)N1CCc2[nH]cnc2[C@H]1c1nc2cc(F)cc(F)c2o1 [Example 609] gave an AC50 of 0.5 to 1 µM.
With Cc1ccc2nc([C@@H]3c4nc[nH]c4CCN3C(=O)c3nnc(-c4cnn(C(F)F)c4)o3)oc2c1 [Example 681, (S)-(5-(1-(difluoromethyl)-1H-pyrazol-4-yl)-1,3,4-oxadiazol-2-yl)(4-(6-methylbenzo[d]oxazol-2-yl)-6,7-dihydro-1H-imidazo[4,5-c]pyridin-5(4H)-yl)methanone] the AC50 was 0.5 to 1 µM.
Cn1cc(-c2nnc(C(=O)N3Cc4[nH]cnc4[C@H]3c3nc4ccccc4o3)o2)cn1 [Example 935, (S)-(4-(benzo[d]oxazol-2-yl)-4,6-dihydropyrrolo[3,4-d]imidazol-5(1H)-yl)(5-(1-methyl-1H-pyrazol-4-yl)-1,3,4-oxadiazol-2-yl)methanone] was tested, and the AC50 was ≥ 5 µM.
In the case of Cc1nc([C@@H](C)O)oc1C(=O)N1CCc2[nH]cnc2[C@@H]1c1nc2cc(F)ccc2o1 [Example 136, ((R)-4-(5-fluorobenzo[d]oxazol-2-yl)-6,7-dihydro-1H-imidazo[4,5-c]pyridin-5(4H)-yl)(2-((R)-1-hydroxyethyl)-4-methyloxazol-5-yl)methanone], the AC50 is reported as ≥ 5 µM.
In the case of “(R)-(3-chloro-1-methyl-1H-1,2,4-triazol-5-yl)(4-(6-fluorobenzo[d]oxazol-2-yl)-6,7-dihydro-1H-imidazo[4,5-c]pyridin-5(4H)-yl)methanone [Example 344]”, the AC50 is reported as 1 to 5 µM.
With COc1cccc2nc([C@@H]3c4nc[nH]c4CCN3C(=O)c3ccnn3C(C)C)oc12 [Example 765, (S)-(1-isopropyl-1H-pyrazol-5-yl)(4-(7-methoxybenzo[d]oxazol-2-yl)-6,7-dihydro-1H-imidazo[4,5-c]pyridin-5(4H)-yl)methanone] the AC50 was ≤ 0.5 µM.
Work on O=C(c1nnc(-c2ccccn2)o1)N1CCc2[nH]cnc2[C@@H]1c1nc2ccccc2o1 [Example 584, (R)-(4-(benzo[d]oxazol-2-yl)-6,7-dihydro-1H-imidazo[4,5-c]pyridin-5(4H)-yl)(5-(pyridin-2-yl)-1,3,4-oxadiazol-2-yl)methanone] yielded an AC50 of 1 to 5 µM.
For Cc1ccc2oc([C@@H]3c4nc[nH]c4CCN3C(=O)c3ccnn3C(F)F)nc2c1 [Example 313, (S)-(1-(difluoromethyl)-1H-pyrazol-5-yl)(4-(5-methylbenzo[d]oxazol-2-yl)-6,7-dihydro-1H-imidazo[4,5-c]pyridin-5(4H)-yl)methanone], the AC50 was ≤ 0.5 µM.
O=C(c1ocnc1C(F)F)N1CCc2[nH]cnc2[C@@H]1c1nc2ccccc2o1 [Example 468, (R)-(4-(benzo[d]oxazol-2-yl)-6,7-dihydro-1H-imidazo[4,5-c]pyridin-5(4H)-yl)(4-(difluoromethyl)oxazol-5-yl)methanone] was tested, and the AC50 was 0.5 to 1 µM.
Compound Cn1cncc1-c1nc(C(F)F)c(C(=O)N2CCc3[nH]cnc3[C@@H]2c2nc3cccc(F)c3o2)o1 [Example 691, (R)-(4-(difluoromethyl)-2-(1-methyl-1H-imidazol-5-yl)oxazol-5-yl)(4-(7-fluorobenzo[d]oxazol-2-yl)-6,7-dihydro-1H-imidazo[4,5-c]pyridin-5(4H)-yl)methanone] has an AC50 of 0.5 to 1 µM.
CC(C)(O)c1nc(C(F)F)c(C(=O)N2CCc3[nH]cnc3[C@H]2c2nc3c(Cl)cccc3o2)o1 [Example 435, [(4S)-4-(4-chloro-1,3-benzoxazol-2-yl)-1,4,6,7-tetrahydroimidazo[4,5-c]pyridin-5-yl]-[4-(difluoromethyl)-2-(1-hydroxy-1-methyl-ethyl)oxazol-5-yl]methanone] was tested, and the AC50 was ≤ 0.5 µM.
Compound Cc1ccc2nc([C@@H]3c4nc[nH]c4CCN3C(=O)c3nnc(-c4cc[nH]n4)o3)oc2c1 [Example 359, (S)-(5-(1H-pyrazol-3-yl)-1,3,4-oxadiazol-2-yl)(4-(6-methylbenzo[d]oxazol-2-yl)-6,7-dihydro-1H-imidazo[4,5-c]pyridin-5(4H)-yl)methanone] has an AC50 of 0.5 to 1 µM.
Work on Cn1nc(C(F)F)nc1C(=O)N1CCc2[nH]cnc2[C@H]1c1nc2cccc(F)c2o1 [Example 285, (S)-(3-(difluoromethyl)-1-methyl-1H-1,2,4-triazol-5-yl)(4-(7-fluorobenzo[d]oxazol-2-yl)-6,7-dihydro-1H-imidazo[4,5-c]pyridin-5(4H)-yl)methanone] yielded an AC50 of 0.5 to 1 µM.
Work on Cc1ccc2oc([C@H]3c4nc[nH]c4CCN3C(=O)c3nnc(-c4cnn(C)c4)o3)nc2c1 [Example 112, (R)-(5-(1-methyl-1H-pyrazol-4-yl)-1,3,4-oxadiazol-2-yl)(4-(5-methylbenzo[d]oxazol-2-yl)-6,7-dihydro-1H-imidazo[4,5-c]pyridin-5(4H)-yl)methanone] yielded an AC50 of 1 to 5 µM.
In the case of O=C(c1cnn(-c2ccccn2)c1)N1CCc2[nH]cnc2[C@H]1c1nc2cc(F)ccc2o1 [Example 879, (S)-(4-(5-fluorobenzo[d]oxazol-2-yl)-6,7-dihydro-1H-imidazo[4,5-c]pyridin-5(4H)-yl)(1-(pyridin-2-yl)-1H-pyrazol-4-yl)methanone], the AC50 is reported as 1 to 5 µM.

Same assay, conditions: A375 cells expressing R408W PAH; 24 hrs with compound, then 20 μM sepiapterin and 800 μM 13C9,15N-Phenylalanine for 4 hours; 13C-Tyrosine by LC-MS; average where tested multiple times
Compound Cn1cc(-c2ncc(C(=O)N3CCc4[nH]cnc4C3c3nc4ccc(Br)cc4o3)s2)cn1 (stereo not drawn) has an AC50 of 1 to 5 µM.
Compound Cn1cncc1-c1nnc(C(=O)N2CCc3[nH]cnc3C2c2nc3cccc(C(F)(F)F)c3o2)o1 (stereo not drawn) has an AC50 of 1 to 5 µM.
For O=C(c1cnn2cc(N3CCC(F)CC3)ccc12)N1CCc2[nH]cnc2C1c1nc2cc(F)ccc2o1 (stereo not drawn), the AC50 was ≥ 5 µM.
With Cn1nccc1C(=O)N1CCc2[nH]cnc2C1c1nc2cccc(F)c2o1 (stereo not drawn) the AC50 was 1 to 5 µM.
In the case of CC(C)(O)c1nc(C(=O)N2CCc3[nH]cnc3C2c2nc3c(F)cccc3o2)no1 (stereo not drawn), the AC50 is reported as 1 to 5 µM.
In the case of O=C(c1nnc(-c2cn[nH]c2)o1)N1CCc2[nH]cnc2C1c1nc2cc(F)ccc2o1 (stereo not drawn), the AC50 is reported as 1 to 5 µM.
In the case of O=C(c1cnn2cc(CN3CC(F)C3)ccc12)N1CCc2[nH]cnc2[C@@H]1c1nc2cc(F)ccc2o1 (single isomer, unassigned), the AC50 is reported as ≥ 5 µM.
